Data as given in patent publication US20260248787A9, “MEDICAMENT FOR TREATING CANCER COMPRISING OPTICALLY ACTIVE AZABICYCLO RING DERIVATIVE” (Sumitomo Pharma Co., Ltd., priority 2023, published 2026).

Assay: Phase 1/2 first-in-human clinical study, safety evaluation (DLT, TEAE, SAE)
Conditions: for SAE Differentiation syndrome, CTCAE Grade: Related
[1] = cut-off, 40-300 mg BID, unrelated to study drug
[2] = patient US053A-0001, 80 mg BID Arm A, Not related, Recovered/Resolved
[3] = patient US154A-0002, 40 mg BID Arm B, Not related, Not recovered/Not resolved
[4] = patient US154A-0004, 100 mg BID Arm A, Not related, Recovered/Resolved
[5] = patient US185A-0001, 100 mg BID Arm A, Not related, Not recovered/Not resolved
[6] = patient US185A-0006, 120 mg BID Arm A, Not related, Fatal

## C=C1C[C@@H]2CC[C@H]1[C@@H](C(=O)N1CCC3(CC1)CN(c1ncncc1Oc1ccc(F)cc1C(=O)N(C(C)C)C(C)C)C3)N2 [the present compound, 5-fluoro-2-[(4-{7-[(1S,3S,4R)-5-methylidene-2-azabicyclo[2.2.2]octane-3-carbonyl]-2,7-diazaspiro[3.5]nonan-2-yl}pyrimidin-5-yl)oxy]-N,N-di(propan-2-yl)benzamide]
N=57, Grade ≥3
  Non-hematological TEAE regardless of causality: COVID-19: 3 (5.3%) n (%)
  Non-hematological TEAE regardless of causality: Constipation: 1 (1.8%) n (%)
  Non-hematological TEAE regardless of causality: Cough: 0 (0.0%) n (%)
  Non-hematological TEAE regardless of causality: Decreased appetite: 2 (3.5%) n (%)
  Non-hematological TEAE regardless of causality: Diarrhoea: 0 (0.0%) n (%)
  Non-hematological TEAE regardless of causality: Dizziness: 0 (0.0%) n (%)
  Non-hematological TEAE regardless of causality: Dysgeusia: 0 (0.0%) n (%)
  Non-hematological TEAE regardless of causality: Dyspnoea: 3 (5.3%) n (%)
  Non-hematological TEAE regardless of causality: Electrocardiogram QT prolonged: 2 (3.5%) n (%)
  Non-hematological TEAE regardless of causality: Epistaxis: 1 (1.8%) n (%)
  Non-hematological TEAE regardless of causality: Fatigue: 1 (1.8%) n (%)
  Non-hematological TEAE regardless of causality: Haemorrhage intracranial: 4 (7.0%) n (%)
  Non-hematological TEAE regardless of causality: Headache: 0 (0.0%) n (%)
  Non-hematological TEAE regardless of causality: Hypertension: 3 (5.3%) n (%)
  Non-hematological TEAE regardless of causality: Hypotension: 2 (3.5%) n (%)
  Non-hematological TEAE regardless of causality: Muscular weakness: 2 (3.5%) n (%)
  Non-hematological TEAE regardless of causality: Myalgia: 0 (0.0%) n (%)
  Non-hematological TEAE regardless of causality: Nausea: 4 (7.0%) n (%)
  Non-hematological TEAE regardless of causality: Oedema peripheral: 0 (0.0%) n (%)
  Non-hematological TEAE regardless of causality: Pain in extremity: 1 (1.8%) n (%)
  Non-hematological TEAE regardless of causality: Pneumonia: 10 (17.5%) n (%)
  Non-hematological TEAE regardless of causality: Pyrexia: 0 (0.0%) n (%)
  Non-hematological TEAE regardless of causality: Sepsis: 10 (17.5%) n (%)
  Non-hematological TEAE regardless of causality: Stomatitis: 0 (0.0%) n (%)
  Non-hematological TEAE regardless of causality: Vomiting: 3 (5.3%) n (%)
  Non-hematological laboratory change regardless of causality: ALT increase: 0 (0.0%) n (%)
  Non-hematological laboratory change regardless of causality: AST increase: 1 (1.8%) n (%)
  Non-hematological laboratory change regardless of causality: Hypertriglyceridemia: 4 (7.0%) n (%)
  Non-hematological laboratory change regardless of causality: Hypocalcemia: 2 (3.5%) n (%)
  Non-hematological laboratory change regardless of causality: Hypokalemia: 10 (17.2%) n (%)
  Non-hematological laboratory change regardless of causality: Hypomagnesemia: 1 (1.8%) n (%)
  Non-hematological laboratory change regardless of causality: Hyponatremia: 0 (0.0%) n (%)
  Non-hematological laboratory change regardless of causality: Hypophosphatemia: 11 (19.3%) n (%)
  Treatment related adverse event: Nausea: 1 (1.8%) n (%)
  Treatment related adverse event: Vomiting: 1 (1.8%) n (%)
Total N=43, 40-200 mg BID
  TEAE in ≥20% of patients regardless of causality: Fatigue: 10 (23.3%) n (%)
  TEAE in ≥20% of patients regardless of causality: Hypokalaemia: 9 (20.9%) n (%)
  TEAE in ≥20% of patients regardless of causality: Nausea: 15 (34.9%) n (%)
  TEAE in ≥20% of patients regardless of causality: Vomiting: 10 (23.3%) n (%)
  TEAE related to the present compound in ≥2 patients: Decreased appetite: 3 (7.0%) n (%)
  TEAE related to the present compound in ≥2 patients: Nausea: 3 (7.0%) n (%)
  TEAE related to the present compound in ≥2 patients: Vomiting: 4 (9.3%) n (%)
cut-off, 40-300 mg BID
  Possible differentiation syndrome (DS): 3 pts
  TEAE assessed as related: nausea: 12.1%
  TEAE assessed as related: vomiting: 15.5%
  mortality from DS: no mortality
[1]
  Grade >3 TEAE: anemia: 13.8%
  Grade >3 TEAE: febrile neutropenia: 15.5%
  Grade >3 TEAE: platelet count decrease: 12.1%
  Grade >3 TEAE: pneumonia: 17.2%
  Grade >3 TEAE: sepsis: 15.5%
cut-off, any dose level of 40-300 mg BID
  DLT: No DLT
cut-off, in the presence of other QT prolonging drugs
  patients with related asymptomatic Grade 3 QT prolongation: One
n=81, 40 mg BID to 300 mg BID
  DLT: no DLT
n=81, 40-300 mg BID
  Grade 3 nausea and vomiting: 1 patient
  TEAE assessed as related: nausea: 12.3%
  TEAE assessed as related: vomiting: 14.8%
  TEAE regardless of relationship: decreased appetite: 21.0%
  TEAE regardless of relationship: diarrhea: 21.0%
  TEAE regardless of relationship: febrile neutropenia: 22.2%
  TEAE regardless of relationship: hypokalemia: 21.0%
  TEAE regardless of relationship: nausea: 37.0%
  TEAE regardless of relationship: vomiting: 29.6%
  grade ≥3 QTc prolongation related to the compound: no reports
Patient JP002A-0001, 40 mg BID Arm A, Not related, Not recovered/Not resolved
  SAE Sepsis, CTCAE Grade: 3
Patient JP002A-0003, 60 mg BID Arm B, Not related, Fatal
  SAE Malignant neoplasm progression, CTCAE Grade: 5
Patient JP007A-0002, 60 mg BID Arm B, Not related, Not recovered/Not resolved
  SAE Disease progression, CTCAE Grade: 3
Patient JP007A-0002, 60 mg BID Arm B, Not related, Recovered/Resolved
  SAE Sepsis, CTCAE Grade: 4
Patient JP028A-0001, 40 mg BID Arm B, Not related, Fatal
  SAE Pneumonia, CTCAE Grade: 5
Patient JP028A-0001, 40 mg BID Arm B, Not related, Recovered/Resolved (one continuous event with the Grade 5)
  SAE Pneumonia, CTCAE Grade: 4
Patient US053A-0001, 80 mg BID Arm A, Not related, Fatal
  SAE Haemorrhage intracranial, CTCAE Grade: 5
[2]
  SAE Atrial fibrillation, CTCAE Grade: 3
  SAE Pneumonia, CTCAE Grade: 3
  SAE Respiratory failure, CTCAE Grade: 4
Patient US053A-0001, 80 mg BID Arm A, Drug interrupted, Recovered/Resolved
  SAE Differentiation syndrome, CTCAE Grade: 4
Patient US053A-0001, 80 mg BID Arm A, action Not applicable, Recovered/Resolved
  SAE Differentiation syndrome, CTCAE Grade: 3
Patient US053A-0002, 40 mg BID Arm B, Not related, Recovered/Resolved
  SAE Pneumonia, CTCAE Grade: 3
Patient US154A-0001, 80 mg BID Arm A, Not related, Fatal
  SAE Disease progression, CTCAE Grade: 5
Patient US154A-0002, 40 mg BID Arm B, Not related, Fatal
  SAE Disease progression, CTCAE Grade: 5
[3]
  SAE Bone pain, CTCAE Grade: 3
  SAE Malaise, CTCAE Grade: 3
[4]
  SAE Pyrexia, CTCAE Grade: 1
  SAE Respiratory failure, CTCAE Grade: 2
Patient US154A-0004, 100 mg BID Arm A, Not related, Recovering/Resolving
  SAE Leukocytosis, CTCAE Grade: 4
Patient US158A-0002, 120 mg BID Arm A, Not related, Recovered/Resolved
  SAE Leukocytosis, CTCAE Grade: 1
Patient US185A-0001, 100 mg BID Arm A, Not related, Fatal
  SAE Acute myeloid leukaemia, CTCAE Grade: 5
[5]
  SAE Cerebrovascular accident, CTCAE Grade: 4
  SAE Haemorrhage intracranial, CTCAE Grade: 2
Patient US185A-0001, 100 mg BID Arm A, Not related, Recovered/Resolved, hypomagnesaemia at the time
  SAE Electrocardiogram QT prolonged, CTCAE Grade: 3
Patient US185A-0002, 40 mg BID Arm B, Not related, Recovered/Resolved
  SAE Febrile neutropenia, CTCAE Grade: 3
Patient US185A-0002, 40 mg BID Arm B, Not related, Recovering/Resolving
  SAE Sepsis, CTCAE Grade: 3
[6]
  SAE Lung infection (pneumonia), CTCAE Grade: 5
  SAE Multiple organ dys function syndrome, CTCAE Grade: 5
  SAE Sepsis, CTCAE Grade: 5
Patient US210A-0001, 80 mg BID Arm A, Not related, Fatal
  SAE Pneumonia fungal, CTCAE Grade: 5
Patient US210A-0001, 80 mg BID Arm A, Not related, Recovered/Resolved
  SAE Rectal haemorrhage, CTCAE Grade: 4
Patient US210A-0002, 120 mg BID Arm A, Not related, Recovered/Resolved
  SAE Cellulitis, CTCAE Grade: 3
Without vs with azole antifungals
  safety profile between Arm A and Arm B: not different
